ChEMBL document CHEMBL4507268 (2021)

Legend:
Conditions in all cases: Compound concentration 1000.0 nM
[1] = biological target: T1, Serine/threonine-protein kinase DCLK2 (Homo sapiens) (UniProt Q8N568)
T1 sequence (whole entry): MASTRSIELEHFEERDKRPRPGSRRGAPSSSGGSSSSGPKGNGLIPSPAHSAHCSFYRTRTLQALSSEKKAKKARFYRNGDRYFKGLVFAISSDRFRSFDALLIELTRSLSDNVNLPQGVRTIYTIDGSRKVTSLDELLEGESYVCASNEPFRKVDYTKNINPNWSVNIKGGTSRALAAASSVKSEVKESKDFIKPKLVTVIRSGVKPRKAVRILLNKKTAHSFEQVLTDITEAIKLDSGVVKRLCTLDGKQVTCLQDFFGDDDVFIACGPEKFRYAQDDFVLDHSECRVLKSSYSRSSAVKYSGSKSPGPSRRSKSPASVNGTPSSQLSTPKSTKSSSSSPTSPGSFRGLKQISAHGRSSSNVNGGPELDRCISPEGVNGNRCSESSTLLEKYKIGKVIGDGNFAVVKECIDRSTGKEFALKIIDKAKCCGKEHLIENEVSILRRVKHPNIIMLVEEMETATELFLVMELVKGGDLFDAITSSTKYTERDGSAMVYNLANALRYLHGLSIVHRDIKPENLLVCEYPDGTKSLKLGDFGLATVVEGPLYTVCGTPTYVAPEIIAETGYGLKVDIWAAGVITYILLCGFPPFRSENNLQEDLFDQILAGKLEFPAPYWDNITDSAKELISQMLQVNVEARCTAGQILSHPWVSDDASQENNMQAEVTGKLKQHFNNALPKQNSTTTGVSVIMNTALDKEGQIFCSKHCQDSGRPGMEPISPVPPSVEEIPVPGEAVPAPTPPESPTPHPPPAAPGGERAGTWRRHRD

[2] = biological target: T2, Rhodopsin kinase GRK7 (Homo sapiens) (UniProt Q8WTQ7)
T2 sequence (whole entry): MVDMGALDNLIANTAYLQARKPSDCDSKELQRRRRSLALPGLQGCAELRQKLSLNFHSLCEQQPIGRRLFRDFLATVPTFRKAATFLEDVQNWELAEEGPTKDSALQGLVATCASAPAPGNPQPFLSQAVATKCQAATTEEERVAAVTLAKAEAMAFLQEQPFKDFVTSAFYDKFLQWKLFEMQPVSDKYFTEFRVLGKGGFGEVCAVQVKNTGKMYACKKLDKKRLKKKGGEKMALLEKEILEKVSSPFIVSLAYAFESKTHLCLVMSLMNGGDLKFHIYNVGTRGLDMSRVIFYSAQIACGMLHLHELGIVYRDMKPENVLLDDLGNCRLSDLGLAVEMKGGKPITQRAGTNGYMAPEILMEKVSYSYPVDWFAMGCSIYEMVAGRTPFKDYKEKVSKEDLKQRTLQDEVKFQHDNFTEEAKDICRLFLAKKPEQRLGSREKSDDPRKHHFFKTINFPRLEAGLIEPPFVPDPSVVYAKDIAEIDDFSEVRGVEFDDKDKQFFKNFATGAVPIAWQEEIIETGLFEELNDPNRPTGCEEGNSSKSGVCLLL

[3] = biological target: Serine/threonine-protein kinase 38-like (Homo sapiens) (UniProt Q9Y2H1)
[4] = biological target: T3, Receptor-interacting serine/threonine-protein kinase 1 (Homo sapiens) (UniProt Q13546)
T3 sequence (whole entry): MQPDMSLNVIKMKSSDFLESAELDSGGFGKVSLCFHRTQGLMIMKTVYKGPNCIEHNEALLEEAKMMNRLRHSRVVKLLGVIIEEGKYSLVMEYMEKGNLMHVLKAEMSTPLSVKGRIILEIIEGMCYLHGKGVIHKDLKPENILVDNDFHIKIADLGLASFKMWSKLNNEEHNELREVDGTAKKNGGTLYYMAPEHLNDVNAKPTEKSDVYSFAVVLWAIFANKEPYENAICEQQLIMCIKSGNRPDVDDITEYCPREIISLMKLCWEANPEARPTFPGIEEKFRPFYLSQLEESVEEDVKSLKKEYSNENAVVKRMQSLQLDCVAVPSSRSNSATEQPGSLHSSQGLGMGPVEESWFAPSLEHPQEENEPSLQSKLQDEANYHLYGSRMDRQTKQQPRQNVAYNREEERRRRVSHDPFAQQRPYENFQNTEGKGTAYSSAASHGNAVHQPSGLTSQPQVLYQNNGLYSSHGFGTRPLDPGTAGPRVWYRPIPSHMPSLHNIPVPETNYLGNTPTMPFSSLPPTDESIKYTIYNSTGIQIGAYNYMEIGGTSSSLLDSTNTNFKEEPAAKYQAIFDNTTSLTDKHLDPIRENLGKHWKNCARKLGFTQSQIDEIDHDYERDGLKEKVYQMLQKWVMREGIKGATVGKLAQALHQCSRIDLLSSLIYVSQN

[5] = biological target: T4, Testis-specific serine/threonine-protein kinase 1 (Homo sapiens) (UniProt Q9BXA7)
T4 sequence (whole entry): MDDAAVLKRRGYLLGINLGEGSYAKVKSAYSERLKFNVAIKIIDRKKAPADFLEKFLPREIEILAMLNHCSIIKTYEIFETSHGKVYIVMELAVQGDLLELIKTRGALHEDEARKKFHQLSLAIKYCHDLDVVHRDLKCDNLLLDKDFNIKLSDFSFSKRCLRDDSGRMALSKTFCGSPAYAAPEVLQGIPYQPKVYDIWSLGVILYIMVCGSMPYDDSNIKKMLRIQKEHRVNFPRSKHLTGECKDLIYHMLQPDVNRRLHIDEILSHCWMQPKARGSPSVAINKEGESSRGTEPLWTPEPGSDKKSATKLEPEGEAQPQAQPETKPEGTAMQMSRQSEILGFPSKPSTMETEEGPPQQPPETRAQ

[6] = biological target: T5, Testis-specific serine/threonine-protein kinase 3 (Homo sapiens) (UniProt Q96PN8)
T5 sequence (whole entry): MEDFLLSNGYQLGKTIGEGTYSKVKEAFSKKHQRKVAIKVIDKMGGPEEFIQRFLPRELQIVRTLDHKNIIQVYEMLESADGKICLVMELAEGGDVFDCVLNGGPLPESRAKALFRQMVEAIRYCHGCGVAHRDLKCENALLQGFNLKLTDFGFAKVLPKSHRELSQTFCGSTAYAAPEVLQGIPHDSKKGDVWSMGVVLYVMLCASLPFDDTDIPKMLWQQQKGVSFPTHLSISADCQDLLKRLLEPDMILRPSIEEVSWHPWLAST

Measured: residual activity

Sequence of Serine/threonine-protein kinase 38-like (Homo sapiens) (Q9Y2H1 2-464 limits assumed): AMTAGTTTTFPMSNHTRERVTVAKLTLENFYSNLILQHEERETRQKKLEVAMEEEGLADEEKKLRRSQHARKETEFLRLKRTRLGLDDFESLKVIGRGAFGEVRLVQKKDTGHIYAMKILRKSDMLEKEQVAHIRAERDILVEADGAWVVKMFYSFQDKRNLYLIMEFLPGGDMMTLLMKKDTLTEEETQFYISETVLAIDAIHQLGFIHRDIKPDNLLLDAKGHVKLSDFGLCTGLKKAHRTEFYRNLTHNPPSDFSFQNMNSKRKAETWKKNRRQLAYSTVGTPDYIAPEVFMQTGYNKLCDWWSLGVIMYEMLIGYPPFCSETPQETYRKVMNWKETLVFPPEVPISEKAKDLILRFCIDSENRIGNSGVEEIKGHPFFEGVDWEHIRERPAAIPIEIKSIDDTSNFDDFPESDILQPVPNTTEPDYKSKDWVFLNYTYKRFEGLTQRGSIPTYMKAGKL

Cc1nc(C2CCN(C(=O)c3ccc(OC(F)(F)F)cc3N)CC2)c2ncc(N3CCN(C)CC3)cc2n1 [BAY-693]
inactive: [1] 100% | [2] 81% | [3] 100% | [4] 98% | [5] 100% | [6] 100%

CN1CCN(c2cnc3c(C4CCN(C(=O)c5ccc(OC(F)(F)F)cc5N)CC4)ncnc3c2)CC1 [BAY-885]
inactive: [1] 100% | [2] 87% | [3] 100% | [4] 100% | [5] 100% | [6] 68%
